Results reported in paper PMC3566133, “Molecular Analysis of the Prostacyclin Receptor’s Interaction with the PDZ1 Domain of Its Adaptor Protein PDZK1” (PLoS ONE, 2013).
Each block holds one molecule with its values, some of them ahead of it. Where a SMILES comes first, the peptide text is derived from it.

How the values were obtained:
PDZ1 domain of PDZK1 = molecular target: T1, PDZ1 domain of PDZK1 (Mus musculus, UniProt Q9JIL4); test: Isothermal titration calorimetry (ITC), binding to recombinant PDZ1 domain of PDZK1; settings: VP-ITC microcalorimeter, 1.0 mM peptide titrated into 0.03 mM PDZ1, 150 mM NaCl, 25 mM Tris-pH 8.0, 0.5 mM TCEP, 20°C, triplicate, ORIGIN 7.0, read-out: Kd (binding affinity) to PDZ1
T1 construct: Recombinant wild-type PDZ1 domain (0.03 mM in 150 mM NaCl); made in house
T1 sequence (Q9JIL4 9-90 limits assumed): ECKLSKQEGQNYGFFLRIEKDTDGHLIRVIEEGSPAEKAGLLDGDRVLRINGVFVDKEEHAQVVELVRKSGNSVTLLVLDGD
Description: Expression and purification of recombinant proteins corresponding to PDZ1 domain 1(PDZ1) of PDZK1 and to full length PDZK1 has been described previously. Binding of synthetic peptides based on the C-terminus of the IP (Fig. 1) was measured using a VP-ITC microcalorimeter (GE Healthcare). Three individual peptides were used: Peptide 1 corresponded to the seven carboxy-terminal amino acids of mouse (m) IP, to which two N-terminal lysines (not part of the IP protein sequence) were added to increase peptide solubility (KK^411IAACSLC^417, ‘target peptide’); Peptide 2 consisted of an octapeptide corresponding to the carboxy-terminus of IP (K^407SEAIAAC^414) devoid of the 3 terminal amino acids (-aaX/-^415SLC^417) which would be removed by proteolytic cleavage following farnesylation. […] Titration curves were analyzed and Kd values determined using ORIGIN 7.0 software (Origin Lab) with baseline correction. […]
Figure 2 Isothermal titration calorimetric analysis of the binding of a C-terminal peptide from IP to the PDZ1 domain of PDZK1. […] Titration curves were analyzed and Kd values determined using ORIGIN 7.0 software. […]

PDZ1 of PDZK1 = settings: cited from earlier work
Source text: PDZK1 is a multi-PDZ domain-containing adaptor protein known to play a role in the expression, localization and function of several cell surface receptors and ion channels. One of its molecular interactants is the prostacyclin receptor (IP), whose interaction with PDZK1 was recently described. […] These interactions involve a Class I type of binding typically seen for protein interactants with carbox ... || We recently solved the structures of the interactions between the HDL receptor SR-BI with the first and with the third PDZ domains of PDZK1 by X-ray crystallography, [32]. […] The crystal structure described herein, analyzing the interaction between the carboxy-terminus of the I ...

[1] = tested on: third PDZ domain (PDZ3) of PDZK1; settings: cited from earlier work
Source text: We recently solved the structures of the interactions between the HDL receptor SR-BI with the first and with the third PDZ domains of PDZK1 by X-ray crystallography, [32]. […] The crystal structure described herein, analyzing the interaction between the carboxy-terminus of the I ...

[2] = molecular target: the molecule itself; test: crystal structure; PDZ1-IP chimera at 1 mM, sitting drop vapor diffusion, 18°C, 0.1 M MES pH 6.5, 30% (w/v) PEG 300; 1.70 Å; the IP peptide of one molecule binds the PDZ1 of the adjacent molecule
[3] = molecular target: T2, recombinant protein corresponding to PDZ domain 1 (PDZ1) of PDZK1 (mouse); test: ITC; 1.0 mM peptide injected in 10 µl aliquots into 0.03 mM PDZ1 or full length PDZK1 in the cell; 150 mM NaCl, 25 mM Tris pH 8.0, 0.5 mM TCEP, 20°C; VP-ITC
T2 sequence (Q9JIL4 whole entry, looked up): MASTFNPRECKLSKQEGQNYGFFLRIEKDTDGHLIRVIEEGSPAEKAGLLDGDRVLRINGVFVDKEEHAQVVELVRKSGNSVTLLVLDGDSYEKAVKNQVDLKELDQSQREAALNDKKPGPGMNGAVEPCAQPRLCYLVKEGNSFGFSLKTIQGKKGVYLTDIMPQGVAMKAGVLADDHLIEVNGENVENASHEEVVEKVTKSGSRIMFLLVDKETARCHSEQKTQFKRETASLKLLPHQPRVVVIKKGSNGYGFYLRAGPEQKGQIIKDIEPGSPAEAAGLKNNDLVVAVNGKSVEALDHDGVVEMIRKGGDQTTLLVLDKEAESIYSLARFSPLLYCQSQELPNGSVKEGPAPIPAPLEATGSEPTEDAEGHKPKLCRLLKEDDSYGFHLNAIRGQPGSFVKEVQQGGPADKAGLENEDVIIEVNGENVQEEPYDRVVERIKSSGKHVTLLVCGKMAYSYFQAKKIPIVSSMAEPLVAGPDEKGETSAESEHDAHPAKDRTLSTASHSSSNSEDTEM

[4] = molecular target: T3, recombinant full-length PDZK1 (mouse, UniProt Q9JIL4 1-519); test: as above; settings: both partners purified
T3 construct: PDZK1, full length, with PDZ1-PDZ4; source: recombinant, purified
T3 sequence (looked up): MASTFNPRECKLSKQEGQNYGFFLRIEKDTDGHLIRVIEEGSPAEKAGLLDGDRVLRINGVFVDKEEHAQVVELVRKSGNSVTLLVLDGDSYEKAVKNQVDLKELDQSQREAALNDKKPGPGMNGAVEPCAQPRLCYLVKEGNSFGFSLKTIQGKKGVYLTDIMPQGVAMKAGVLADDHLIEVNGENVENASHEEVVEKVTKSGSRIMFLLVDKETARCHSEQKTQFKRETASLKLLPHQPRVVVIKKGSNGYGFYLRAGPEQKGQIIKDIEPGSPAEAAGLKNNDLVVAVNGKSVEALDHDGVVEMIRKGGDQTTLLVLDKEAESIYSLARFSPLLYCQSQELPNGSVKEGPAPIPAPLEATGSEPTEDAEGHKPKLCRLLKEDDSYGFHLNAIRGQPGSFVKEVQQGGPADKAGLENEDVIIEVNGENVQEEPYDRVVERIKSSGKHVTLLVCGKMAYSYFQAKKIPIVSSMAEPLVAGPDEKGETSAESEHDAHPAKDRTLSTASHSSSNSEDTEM

[5] = molecular target: T4, PDZK1 residues 7-106 (PDZ1 domain 7-86 with interdomain residues 87-106), the PDZK1 portion of the PDZ1-IP … (mouse, UniProt Q9JIL4 7-106); test: crystal structure; PDZ1-IP chimera at 1 mM, sitting drop vapor diffusion, 18°C, 0.1 M MES pH 6.5, 30% (w/v) PEG 300; 1.70 Å; the IP peptide of one molecule binds the PDZ1 of the adjacent molecule; settings: both partners purified
T4 construct: PDZK1 residues 7-106: PDZ1 (7-86) and interdomain residues 87-106; numbering of the intact murine PDZK1; Stood in the crystal joined on one chain with m8 (the chimera m6, with Gly-Ser at its N-terminus); written apart for the pair PDZ1 with the IP peptide; also called PDZ1 portion of the structure; source: E. coli JM109, purified, as part of the PDZ1-IP chimera; not shown: GST, N-terminal, cleaved
T4 sequence (looked up): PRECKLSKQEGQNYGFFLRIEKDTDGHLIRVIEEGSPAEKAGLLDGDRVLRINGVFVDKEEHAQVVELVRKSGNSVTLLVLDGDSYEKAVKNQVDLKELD

Molecule: -VLQEAKL [SR-BI, scavenger receptor class B, type I]
Kd (PDZ1 of PDZK1; PDZ1 of PDZK1, read-out: Kd of SR-BI binding to PDZ1): 2.6 µM
Affinity of SR-BI/PDZ1 interaction (PDZ1 of PDZK1): high affinity
Affinity of SR-BI/PDZ3 interaction [1]: lower affinity

B1: chimeric PDZ1-IP recombinant protein (residues 7-106 of PDZK1 fused to the seven carboxy-terminal amino acids of mouse IP) (other)
chain: GSPRECKLSKQEGQNYGFFLRIEKDTDGHLIRVIEEGSPAEKAGLLDGDRVLRINGVFVDKEEHAQVVELVRKSGNSVTLLVLDGDSYEKAVKNQVDLKELDIAACSLC
notes: Gly-Ser dipeptide from the cloning vector (pGEX-4T-3), left at the N-terminus after thrombin digestion; PDZK1 residues 7-106: PDZ1 (7-86) and interdomain residues 87-106; numbering of the intact murine PDZK1; prostacyclin receptor (IP), mouse, seven carboxy-terminal residues 411-417; In the structure the chain is numbered 7Pro to 113Cys; also called PDZ1-IP chimera; PDZ1-IP target peptide …
binding result [2]: binds

B2: Peptide 1 (KK411IAACSLC417), seven carboxy-terminal amino acids of mouse IP with two added N-terminal lysines (peptide)
peptide: KKIAACSLC
notes: prostacyclin receptor (IP), mouse, seven carboxy-terminal residues 411-417; also called target peptide; C-terminal nonapeptide from IP; source: synthetic peptide, HPLC purified (Tufts University Core Facility)
Kd [3]: 8.2 µM
Kd [4]: 60.2 ± 14.2 µM

More lines, now with the values ahead:

Kd (PDZ1 domain of PDZK1): 8.2 µM
Molecule: CC[C@H](C)[C@H](NC(=O)[C@H](CCCCN)NC(=O)[C@@H](N)CCCCN)C(=O)N[C@@H](C)C(=O)N[C@@H](C)C(=O)N[C@@H](CS)C(=O)N[C@@H](CO)C(=O)N[C@@H](CC(C)C)C(=O)N[C@@H](CS)C(=O)O [Peptide 1] (H-KKIAACSLC-OH)

binding result [5]: binds
B3: seven carboxy-terminal residues of mouse IP (411IAACSLC417), the IP portion of the PDZ1-IP chimera (peptide)
peptide: IAACSLC
notes: prostacyclin receptor (IP), mouse, seven carboxy-terminal residues 411-417; also numbered -6 to 0 from the C-terminal residue; Stood in the crystal fused to the C-terminus of m7 (the chimera m6); also called IP target peptide; IP peptide; source: E. coli JM109, purified, as part of the PDZ1-IP chimera
